Experiments:
[1] = system: B16-F1 mouse skin melanoma
Description: Formulations: Two formulations were used for this study. The first one was prepared for groups treated with paclitaxel alone while the other one was prepared for the paclitaxel/caryophyllene combination (Table 5). […] These solutions were further diluted with 19 mL of a solution containing soya lecithin (2.85 mL), glycerol (0.95 mL) and polysorbate 80 (380 μL) in water (14.82 mL). Each solution was prepared fresh and used within 30 minutes after preparation (see Table 5 below for presenting formulations).
Mice: All the experiments were carried out using B6D2F1 male mice, 6-weeks old (Charles Rivers Inc., St-Constant, QC). They were handled and cared for in accordance with the Guide for the Care and Use of Laboratory Animals.
Cells (passages #7 to 21) were grown to 90% confluence in complete MEM medium containing Earle's salts and L-glutamine (Mediatech Cellgro, Va.), 10% fetal bovine serum (Hyclone), vitamins (1×), penicillin (100 I.U./mL) and streptomycin (100 μg/mL), essential amino acids (1×) and sodium pyruvate (1×) (Mediatech Cellgro, Va.). Cells were then harvested using 0.5% trypsin-EDTA (Mediatech Cellgro, Va.). Cells were counted using a hemacytometer and resuspended in MEM medium without SVF. 100 μL of a solution containing […] per well were inoculated subcutaneously in each mice.
Administration: To establish animal tumor models, 2.5×10^6 cells were resuspended in 100 μL of MEM medium without SVF (Mediatech Cellgro, Va.) and injected into the subcutaneous tissue of the right flank of the mice on day zero. […] Treatments by intravenous injections (tail vein) were performed on days 7, 10, 13.
Data analysis: Antitumor activity was evaluated according to two parameters as follows:
CTW values were averaged within each group during and after drug treatment over a period of 17 days post-tumor implant. […] Values of p<0.05 were considered statistically significant.

MCF-7 = assay: Cytotoxicity of alpha-humulene and isocaryophyllene alone or combined with beta-caryophyllene; type: cell-based, human
Description: Combinations of beta-caryophyllene and two other antitumor agents, isocaryophyllene and α-humulene, were also tested as described above with some adaptations. 5×10^3 cells per well were allowed to adhere for 16 hours before treatment. The final concentration of solvent in the culture medium was maintained at 0.5% (volume/volume) to avoid toxicity. These combinations were tested on MCF-7.

tumor cell lines = assay: Comparative potentiating effect of beta-caryophyllene and Tesmilifene (DPPE) combined with 5 antitumor classes; type: cell-based
Description: Each solution was prepared fresh and use within 1 hour after preparation.
Cells were then harvested using trypsine-EDTA. Cells were counted using a hemocytometer and resuspended in DMEM+10% FBS medium.
Proliferation assay: Increasing concentrations of the anticancer agents and/or beta-caryophyllene were added to 96-well plate (100 μL per well). The final concentration of solvent in the culture medium was maintained below 0.5% (volume/volume) to avoid solvent toxicity.
The cells were incubated for 48 h at 37° C. and 5% CO2. Cytotoxicity was assessed using the resazurin reduction test (O'Brien et al., 2000). Fluorescence was measured on an automated 96-well Fluoroskan Ascent FI™ plate reader (Labsystems) using excitation and emission wavelengths of 530 nm and 590 nm, respectively. Resazurin was then removed.
Microplates were frozen at −20° C. overnight. Plates were thawed, a volume of 100 μl of 0.01% SDS in water was added to the wells, the plates were shaken at room temperature for 3 hours and then frozen once more at −20° C. overnight. […] Plates were shaken in the dark (at room temperature) for at least 2 hours, and fluorescence was measured on an automated 96-well Fluoroskan Ascent FI™ plate reader (Labsystems) using excitation and emission wavelengths of 360 nm and 460 nm, respectively.
Results were analyzed using the Chou and Talalay method (9) and may be interpreted as follow: Cl>1 represents an antagonist effect of beta-caryophyllene with the corresponding anticancer agent; Cl=1 represents an additive effect of beta-caryophyllene with the corresponding anticancer agent; Cl<1 represents a potentiating effect of beta-caryophyllene with the corresponding anticancer agent.

[2] = paclitaxel 2 mg/kg, beta-caryophyllene 1%, i.v. days 7, 10, 13
[3] = combined with 10 μg/ml of beta-caryophyllene

## C=C1CC/C=C(\C)CC[C@@H]2[C@@H]1CC2(C)C [beta-caryophyllene, (1R,4E,9S)-4-11,11-trimethyl-8-methylenebicyclo[7.2.0]undec-4-ene]
[1]; B16 melanoma-bearing mice, i.v. days 7, 10, 13
  effect on tumor growth (in words): do not significantly inhibit tumor growth
[1]; male, B6D2F1, mouse, in vivo, 17 day
  Observations: animals surviving on day 17: 08/08 animals
[1]; [2]
  Treated/Control (%) on day 13: 95%
  Treated/Control (%) on day 14: 100%
  Treated/Control (%) on day 15: 89%
  Treated/Control (%) on day 16: 91%
  Treated/Control (%) on day 17: 111%
MCF-7; beta-caryophyllene 2.5 to 40 μg/ml
  effect on anticancer activity of alpha-humulene and isocaryophyllene: increases significantly anticancer activity
Tumor cell lines; class (1) Very High
  Alkylating agents %: 50%
  Alkylating agents Total (60): 30
  Antimitotic agents %: 60%
  Antimitotic agents Total (40): 24
  RNA/DNA antimetabolites %: 30%
  RNA/DNA antimetabolites Total (20): 6
  Topoisomerase II inhibitors %: 33%
  Topoisomerase II inhibitors Total (40): 13
  kinase inhibitors %: 35%
  kinase inhibitors Total (20): 7
Tumor cell lines; class (2) High
  Alkylating agents %: 15%
  Alkylating agents Total (60): 9
  Antimitotic agents %: 15%
  Antimitotic agents Total (40): 6
  RNA/DNA antimetabolites %: 20%
  RNA/DNA antimetabolites Total (20): 4
  Topoisomerase II inhibitors %: 18%
  Topoisomerase II inhibitors Total (40): 7
  kinase inhibitors %: 30%
  kinase inhibitors Total (20): 6
Tumor cell lines; class (3) Moderate
  Alkylating agents %: 23%
  Alkylating agents Total (60): 14
  Antimitotic agents %: 23%
  Antimitotic agents Total (40): 9
  RNA/DNA antimetabolites %: 15%
  RNA/DNA antimetabolites Total (20): 3
  Topoisomerase II inhibitors %: 28%
  Topoisomerase II inhibitors Total (40): 11
  kinase inhibitors %: 20%
  kinase inhibitors Total (20): 4
Tumor cell lines; class (4) Weak
  Alkylating agents %: 4%
  Alkylating agents Total (60): 2
  Antimitotic agents %: 3%
  Antimitotic agents Total (40): 1
  RNA/DNA antimetabolites %: 10%
  RNA/DNA antimetabolites Total (20): 2
  Topoisomerase II inhibitors %: 10%
  Topoisomerase II inhibitors Total (40): 4
  kinase inhibitors %: 5%
  kinase inhibitors Total (20): 1
Tumor cell lines; class (5) Additive effect
  Alkylating agents %: 0%
  Alkylating agents Total (60): 0
  Antimitotic agents %: 0%
  Antimitotic agents Total (40): 0
  RNA/DNA antimetabolites %: 0%
  RNA/DNA antimetabolites Total (20): 0
  Topoisomerase II inhibitors %: 8%
  Topoisomerase II inhibitors Total (40): 3
  kinase inhibitors %: 5%
  kinase inhibitors Total (20): 1
Tumor cell lines; class (6) Antagonist effect
  Alkylating agents %: 7%
  Alkylating agents Total (60): 4
  Antimitotic agents %: 0%
  Antimitotic agents Total (40): 0
  RNA/DNA antimetabolites %: 25%
  RNA/DNA antimetabolites Total (20): 5
  Topoisomerase II inhibitors %: 5%
  Topoisomerase II inhibitors Total (40): 2
  kinase inhibitors %: 5%
  kinase inhibitors Total (20): 1
Tumor cell lines; drugs tested at their IC50 values
  drugs exhibiting a potentiating effect when combined: 91%

## C/C1=C\CC/C(C)=C/CC(C)(C)/C=C/C1 [∝-humulene, α-humulene]
MCF-7; [3]
  IC50: 15 µg/mL
MCF-7; used alone
  IC50: 25 µg/mL

## C=C1CC/C=C(/C)CC[C@@H]2[C@@H]1CC2(C)C [isocaryophyllene]
MCF-7; [3]
  IC50: 16 µg/mL
MCF-7; used alone
  IC50: 30 µg/mL

Source: patent US20110008465A1, “SESQUITERPENE FORMULATIONS, KITS AND METHODS OF USE THEREOF” (priority 2007, published 2011)
